In patent publication US20220220481A1, “LIPID OLIGONUCLEOTIDE ANTISENSE AGAINST ANTIBIOTIC RESISTANCE” (priority 2019, published 2022):

Experiments:
[1] = system: E. coli TcK12 (resistant, blaCTX-M-15 plasmid); test: Ceftriaxone MIC with or without ASOs/LASOs, liquid micro-dilution, resistant laboratory strain; format: cell-based, Escherichia coli; details: TcK12, 24 h
From the text: E. coli strains used included the clinical strain Ec3536 collected from a urine sample of the community patient and provided from the MFP Laboratory collection (Arpin et al. (2009) J. Antimicrob. Chemother. 63:1205-1214). Its conjugative plasmid containing the blaCTX-M-15 gene was transferred by conjugation experiment in a laboratory recipient cell of E. coli K12. Consequently, the transconjugant E. coli TcK12 was resistant to ceftriaxone (CFX) (Arpin et al. (2009) J. Antimicrob. Chemother. 63:1205-1214).
(§1) Determination of minimum inhibitor concentration (MICs) of free CFX with or without ASOs/LASOs was performed on different strains of E. coli, i.e. the CFX sensitive strain K12, and the two resistant strains TcK12 and Ec3536.
(§2) MICs of free CFX with ASOs/LASOs were determined in accordance with the standard method of liquid micro-dilution.
Each bacterial strain that had been frozen at −80° C. was isolated on Mueller-Hinton (MH) agar during 16 h at 37° C. A bacterial suspension in solution of 0.85% NaCl was prepared in order to obtain a turbidity equivalent to standard 0.5 of McFarland range and then diluted 1/100 in MH that correspond to a bacterial inoculum of ca. 10^6 CFU/mL. […]
(§3) Preliminary data allowed to optimize the analysis of microplates using turbidimeter (Apollo LB 911 (Berthold)) at the wavelength of 620 nm, read in triplicate at 0 h, and 24 h. […]

[2] = system: E. coli K12 (CFX sensitive strain); test: Ceftriaxone MIC with or without ASOs/LASOs, liquid micro-dilution, sensitive strain; format: cell-based, Escherichia coli; details: K12, 24 h, SD 0, n=3
Method: as §1, §2
Each bacterial strain that had been frozen at −80° C. was isolated on Mueller-Hinton (MH) agar during 16 h at 37° C. A bacterial suspension in solution of 0.85% NaCl was prepared in order to obtain a turbidity equivalent to standard 0.5 of McFarland range and then diluted 1/100 in MH that correspond to a bacterial inoculum of ca. 10^6 CFU/mL. The bacterial suspension was afterwards mixed with ASOs, LASOs at 2-fold desired concentration in MH. Then 50 μL of bacterial suspension mixed with 50 μl MH, containing oligonucleotides or CFX, was dispensed into the microplate wells immediately. The final volume per well was 100 μL. The concentration of oligonucleotides in well was fixed at 5 μM except for dose-effect tests. The concentration range of LASOs from 0.05 μM to 50 μM was tested. The range of CFX concentration was adjusted to surround the MIC of each bacterial strain. […]
as §3

CO/N=C(\C(=O)N[C@@H]1C(=O)N2C(C(=O)O)=C(CSc3nc(=O)c(=O)[nH]n3C)CS[C@H]12)c1csc(N)n1 [CFX, ceftriaxone]
CFX MIC without oligonucleotide (means of MICs) [1]: 1365 mg/L
CFX MIC in absence of antisense sequences [2]: 0.06 mg/L
